Laboratory results: US12503444B2, “Compound containing benzene ring and application thereof” (WUHAN LL SCIENCE AND TECHNOLOGY DEVELOPMENT CO., LTD., priority 2019, dated 2025)
Read-outs that look alike come from different tables or passages of the source.

Experiments:
[1] = molecular target: T1, hP2X4 (human purinergic P2X receptor subtype 4) (Homo sapiens, UniProt Q99571); assay: FLIPR assay of intracellular calcium increase induced by activation of hP2X4 expressed in HEK293 cells (agonist BZ-ATP 2.5 μM); format: cell-based; details: HEK293 cells stably expressing hP2X4, FLIPR, read-out: P2X4 IC50
T1 sequence (Q99571 1-404 isoform Q99571-2): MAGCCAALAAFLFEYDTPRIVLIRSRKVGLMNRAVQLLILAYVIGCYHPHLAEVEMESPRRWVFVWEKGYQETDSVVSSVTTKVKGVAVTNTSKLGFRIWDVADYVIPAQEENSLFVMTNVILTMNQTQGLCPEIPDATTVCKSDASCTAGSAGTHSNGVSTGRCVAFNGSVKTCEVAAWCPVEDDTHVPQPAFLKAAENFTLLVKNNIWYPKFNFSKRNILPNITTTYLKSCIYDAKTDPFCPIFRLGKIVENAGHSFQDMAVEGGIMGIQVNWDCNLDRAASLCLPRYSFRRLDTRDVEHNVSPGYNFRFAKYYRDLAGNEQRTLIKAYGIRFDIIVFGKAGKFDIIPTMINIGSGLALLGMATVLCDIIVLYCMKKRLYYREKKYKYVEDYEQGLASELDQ
In short: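 Inhibition of the calcium signal was measured by FLIPR after a 2.5 μM final BZ-ATP challenge, with readings every second over 2 min. Stable hP2X4-HEK293 cells were dye-loaded (Calcium 6, 37° C, 1.5 h) and equilibrated with test compound for 30 min at room temperature beforehand.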

[2] = In vitro metabolic stability, liver microsome incubation (rat); format: in vitro ADME; details: rat, 1 mg/mL liver microsome protein, 37° C., read-out: T1/2 in rat liver microsome min
Experimental: (§1) The in vitro metabolic stability of the compounds disclosed herein was determined through incubation of liver microsomes of various species. A proper amount of test compound was added into a liver microsome reaction system (1 mg/mL liver microsome protein, 25 U/mL glucose-6 phosphate dehydrogenase, 1 mM NADP, 6 mM D-glucose 6-phosphate and 5 mM MgCl2), and then the mixture was incubated in a water bath kettle at 37° C. to start the reaction. At each time point, 100 μL of the reaction system was added into a centrifuge tube containing 400 μL of internal standard working solution (containing a 200 ng/mL solution of dexamethasone, diclofenac, tolbutamide and labetalol in acetonitrile) precooled at 0° C. so as to stop the reaction, and the mixture was then centrifuged at 10,000 g for 10 min at 4° C. The supernatant was collected for LC-MS assay so as to obtain the values of in vitro metabolic half-life of the test compounds in liver microsomes of various species.

[3] = In vitro metabolic stability, liver microsome incubation (human); format: in vitro ADME; details: human, liver microsomes, 1 mg/mL liver microsome protein, 37° C., read-out: T1/2 in human liver microsome min
Experimental: as §1

[4] = In vitro cytotoxicity assay in HepG2 cells, CCK-8 method; details: human
Experimental: In vitro cytotoxicity assay for the compounds disclosed herein was performed in HepG2 cells using the CCK-8 method. HepG2 cells (Beina Bio) in the logarithmic growth phase were collected, the concentration of cell suspension was adjusted, and then the cells were plated on a 96-well cell culture plate at 50,000 cells/well. The cells were then incubated overnight in a cell incubator (5%/humidity, 37° C.), and after 80-90% cell confluence was achieved, test compounds or vehicle (DMSO) at various concentration gradients were added after medium change. The resulting mixture was incubated in the cell incubator (5% humidity, 37° C.) for 48 h. After the treatment, the medium in the plate was discarded. The plate was washed twice with PBS, added with CCK-8 working solution (Beyotime) at 100 μL per well, and then incubated at 37° C. for 1.5 h away from the light. Absorbance at OD450 nm was measured for each well on a microplate reader, and CC50 value of each compound was analyzed and calculated.

[5] = In vitro metabolic stability, liver microsome incubation (guinea pig); format: in vitro ADME; details: guinea pig, liver microsomes; 1 mg/mL liver microsome protein, 37° C.; read-out: T1/2 in guinea pig liver microsome min
Experimental: as §1

[6] = test system: Male Dunkin Hartley guinea pigs; assay: Citric acid only cough model in guinea pigs; format: in vivo; details: guinea pig, 17.5% citric acid
Experimental: Male Dunkin Hartley guinea pigs (300-350 g) were placed in an animal atomization box, and then the door of the atomization box was closed while the ultrasonic atomizer (Guangdong Yuehua) was turned on. 17.5% citric acid gas was introduced into the atomization box at a maximum atomization rate (about 2 mL/min) for 20 s, and coughs of the animals within 10 min were continuously observed from the time of the start of atomization. During the 10-min observation, coughs of the animals needed to be counted manually, and the number of coughs were judged according to cough postures of the guinea pigs, such as abdominal twitching, mouth opening, and head inclining downward abruptly. The number of coughs during the first 5 min and that during 10 min were recorded, and the cough latency of the guinea pigs, namely the time from the initiation of citric acid induction to the appearance of the 1st cough, was also recorded.
Cough inhibition rate Vs vehicle represents the percentage of reduction
[formula] in the number of coughs in the administration group compared to the vehicle group upon citric acid challenge; Cough inhibition rate Vs baseline represents the percentage of reduction
[formula] in the number of coughs in the administration group before and after administration.

[7] = 60 mg/kg group, before administration (baseline)

Structure (SMILES)	IC50 ([1]; class symbols) [nM]	half-life ([2]; liver microsomes) [h]	half-life [3] [h]	CC50 at 48 h [4] [nM]	IC50 ([1]; numeric values) [nM]	further results
CCC(F)(F)n1cc2c(S(N)(=O)=O)cc(NC(=O)Cc3ccccc3Cl)cc2n1 [Compound 133, 2-(2-chlorophenyl)-N-(2-(1,1-difluoropropyl)-4-sulfamoyl-2H-indazol-6-yl)acetamide]	10 to 50	2.26	25	> 100000		
COc1ccc(Cn2cc3c(S(N)(=O)=O)cc(NC(=O)Cc4ccccc4Cl)cc3n2)cc1 [Compound 35-A, 2-(2-chlorophenyl)-N-(2-(4-methoxybenzyl)-4-sulfamoyl-2H-indazol-6-yl)acetamide]	10 to 50		6.21	> 200000		
CC(C)OCCn1cc2c(S(N)(=O)=O)cc(NC(=O)Cc3ccccc3Cl)cc2n1 [Compound 26-A, 2-(2-chlorophenyl)-N-(2-(2-isopropoxyethyl)-4-sulfamoyl-2H-indazol-6-yl)acetamide]			2.09	> 200000	6.1	
NS(=O)(=O)c1cc(NC(=O)Cc2ccccc2Cl)cc2c1cnn2CC1CCOC1 (centres unmarked) [Compound 110A, 2-(2-chlorophenyl)-N-(4-sulfamoyl-1-((tetrahydrofuran-3-yl)methyl)-1H-indazol-6-yl)acetamide]	200 to 5000	0.335	0.882			
NS(=O)(=O)c1cc(NC(=O)Cc2ccccc2Cl)cc2cn(CC3CC3)nc12 [Compound 47, 2-(2-chlorophenyl)-N-(2-(cyclopropylmethyl)-7-sulfamoyl-2H-indazol-5-yl)acetamide]			13.1	> 200000	17	
NS(=O)(=O)c1cc(NC(=O)Cc2ccccc2Cl)cc2c1cnn2CC1CCC1 [Compound 24-B, 2-(2-chlorophenyl)-N-(1-(cyclobutylmethyl)-4-sulfamoyl-1H-indazol-6-yl)acetamide]	≤ 10	0.768	1.84	> 200000		half-life [5]: 2.41 h
NS(=O)(=O)c1cc(NC(=O)Cc2ccccc2Cl)cc2nn(CC3CCCO3)cc12 (centres unmarked) [Compound 120, 2-(2-chlorophenyl)-N-(4-sulfamoyl-2-((tetrahydrofuran-2-yl)methyl)-2H-indazol-6-yl)acetamide]	50 to 200	0.226	1.06			
NS(=O)(=O)c1cc(NC(=O)Cc2ccccc2Cl)cc2nn(Cc3ccc(F)cc3)cc12 [Compound 88, 2-(2-chlorophenyl)-N-(2-(4-fluorobenzyl)-4-sulfamoyl-2H-indazol-6-yl)acetamide]	≤ 10	2.07	8.54	> 200000		half-life [5]: 2 h
NS(=O)(=O)c1cc(NC(=O)Cc2ccccc2Cl)cc2nn(CC3CCOCC3)cc12 [Compound 141, 2-(2-chlorophenyl)-N-(4-sulfamoyl-2-((tetrahydro-2H-pyran-4-yl)methyl)-2H-indazol-6-yl)acetamide]	50 to 200	0.226	1.07			
COc1ccc(Cn2ncc3c(S(N)(=O)=O)cc(NC(=O)Cc4ccccc4Cl)cc32)cc1 [Compound 35-B, 2-(2-chlorophenyl)-N-(1-(4-methoxybenzyl)-4-sulfamoyl-1H-indazol-6-yl)acetamide]	10 to 50		4.66	> 200000		
NS(=O)(=O)c1cc(NC(=O)Cc2ccccc2Cl)cc2c1cnn2CC1CCCO1 (centres unmarked) [Compound 120A, 2-(2-chlorophenyl)-N-(4-sulfamoyl-1-((tetrahydrofuran-2-yl)methyl)-1H-indazol-6-yl)acetamide]	50 to 200	0.137	0.371			
NS(=O)(=O)c1cc(NC(=O)Cc2ccccc2Cl)cc2nn(CC(F)F)cc12 [Compound 12-A, 2-(2-chlorophenyl)-N-(2-(2,2-difluoroethyl)-4-sulfamoyl-2H-indazol-6-yl)acetamide]				> 200000	31	half-life ([3]; symbol NA): > 106 h
COc1ccc2c(c1)[C@]13CCCC[C@@H]1[C@H](C2)N(C)CC3 [Dextromethorphan, dextromethorphan, reference compound]						Cough inhibition rate Vs vehicle (%) ([6]; 60 mg/kg): 33.95%; Cough latency [6, 7]: 73.43 s; Mean number of coughs [6, 7]: 18.57; Cough latency ([6]; 60 mg/kg, after administration): 154.29 s; Mean number of coughs ([6]; 60 mg/kg, after administration): 12.71; Cough inhibition rate Vs baseline (%) ([6]; 60 mg/kg, before vs after administration): 31.54%
COc1ccccc1Cn1cc2c(S(N)(=O)=O)cc(NC(=O)Cc3ccccc3Cl)cc2n1 [Compound 37-A, 2-(2-chlorophenyl)-N-(2-(2-methoxybenzyl)-4-sulfamoyl-2H-indazol-6-yl)acetamide]	10 to 50		1.32			
CC(C)CCn1cc2c(S(N)(=O)=O)cc(NC(=O)Cc3ccccc3Cl)cc2n1 [Compound 8-A, 2-(2-chlorophenyl)-N-(2-isopentyl-4-sulfamoyl-2H-indazol-6-yl)acetamide]			0.584	> 200000	13.9	
Cn1cc2c(S(N)(=O)=O)cc(NC(=O)Cc3ccccc3Cl)cc2n1 [Compound 3-A, 2-(2-chlorophenyl)-N-(2-methyl-4-sulfamoyl-2H-indazol-6-yl)acetamide]			106		4.9	
Nc1ccc(Cn2ncc3c(S(N)(=O)=O)cc(NC(=O)Cc4ccccc4Cl)cc32)cn1 [Compound 101A, N-(1-((6-aminopyridin-3-yl)methyl)-4-sulfamoyl-1H-indazol-6-yl)-2-(2-chlorophenyl)acetamide]	10 to 50		1.19			
NS(=O)(=O)c1cc(NC(=O)Cc2ccccc2Cl)cc2nn(CC3CCC3)cc12 [Compound 24-A, 2-(2-chlorophenyl)-N-(2-(cyclobutylmethyl)-4-sulfamoyl-2H-indazol-6-yl)acetamide]			1.08		1.6	
NS(=O)(=O)c1cc(NC(=O)Cc2ccccc2Cl)cc2nn(CC3CCOC3)cc12 (centres unmarked) [Compound 110, 2-(2-chlorophenyl)-N-(4-sulfamoyl-2-((tetrahydrofuran-3-yl)methyl)-2H-indazol-6-yl)acetamide]	50 to 200	1.15	7.18			
NS(=O)(=O)c1cc(NC(=O)Cc2ccccc2Cl)cc2nc(-c3ccccc3)[nH]c12 [Compound 53, 2-(2-chlorophenyl)-N-(2-phenyl-7-sulfamoyl-1H-benzo[d]imidazol-5-yl)acetamide]	200 to 5000	0.753	3.79			half-life [5]: 0.154 h
NS(=O)(=O)c1cc(NC(=O)Cc2ccccc2Cl)cc2c1cnn2-c1ccc(F)cc1 [Compound 44, 2-(2-chlorophenyl)-N-(1-(4-fluorophenyl)-4-sulfamoyl-1H-indazol-6-yl)acetamide]			5.08		36.8	half-life ([2]; microsomes): 1.53 h; half-life [5]: 1.2 h
CC(C)C(C)n1cc2c(S(N)(=O)=O)cc(NC(=O)Cc3ccccc3Cl)cc2n1 (centres unmarked) [Compound 10, 2-(2-chlorophenyl)-N-(2-(3-methylbutan-2-yl)-4-sulfamoyl-2H-indazol-6-yl)acetamide]	10 to 50		0.408			
C=CC(F)(F)n1cc2c(S(N)(=O)=O)cc(NC(=O)Cc3ccccc3Cl)cc2n1 [Compound 134, 2-(2-chlorophenyl)-N-(2-(1,1-difluoroallyl)-4-sulfamoyl-2H-indazol-6-yl)acetamide]	10 to 50	3.22	13.7			
